{
  "source": "patent US20250073209A1",
  "about": "“COVALENT TARGETING OF RhoA FOR CANCER THERAPY” (The University of Hong Kong, priority 2023, published 2025)",
  "key": {"[1]": {"molecular_target": "RhoA (Homo sapiens, UniProt P61586)", "sequence (P61586 whole entry)": "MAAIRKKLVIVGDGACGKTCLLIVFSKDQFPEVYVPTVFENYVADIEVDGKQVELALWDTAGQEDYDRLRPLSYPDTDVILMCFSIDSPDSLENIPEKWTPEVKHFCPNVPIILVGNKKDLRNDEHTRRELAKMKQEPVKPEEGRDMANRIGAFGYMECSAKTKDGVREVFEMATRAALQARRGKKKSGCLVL", "test": "Fluorescence-based assay of Dbs-mediated GTP binding onto RhoA", "type": "biochemical", "conditions": "increasing concentrations of CL16"}, "[2]": {"system": "phosphorylated MLC (downstream effector of RhoA)", "test": "Western blotting of phosphorylated MLC, serum starvation-restimulation", "type": "cell-based, human", "conditions": "HCT116, serum starvation-restimulation", "protocol": "Anti-RhoA (#2117), anti-GAPDH (#2118), anti-phosphoMLC (#3671), anti-MLC (#3672), anti-FLAG (#8146), anti-GFP (#2956), and anti-GST (#2624) were purchased from Cell Signaling Technology. Cells were washed with PBS and then harvested using cell lysis buffer (1% Triton X100, 10 mM beta glycerol phosphate, 10 mM sodium pyrophosphate, 40 mM HEPES, 4 mM EDTA, pH7.4) with 4% protease/phosphatase inhibitor cocktail (Pierce). Protein samples were quantified using BCA assays (Pierce), normalized and then boiled with 4× Laemmli sampling buffer in 95° C. for 5 mins. Samples were resolved in 10% polyacrylamide gel (Biorad) and then transferred onto PVDF membrane (Biorad) and blocked with blocking buffer (5% bovine serum albumin (BSA) in Tris-buffered saline with 0.1% Tween 20 (TBST)) for 1 h. Membrane was washed in TBST, followed by incubation with corresponding primary antibodies (diluted 1:1000 in 5% BSA/milk in TBST with 1% NaN3) overnight at 4° C. After washing thrice with TBST, the membrane was incubated with HRP-conjugated secondary antibodies (#7074 or 7076) for one hour at room temperature. The membrane was then incubated with LumiGlo reagent (Cell Signaling Technology) and chemiluminescence was captured using a Chemidoc (Biorad).\nThe effects of CL16 on RhoA downstream signals in CRCs with serum starvation-restimulation were examined."}, "[3]": {"system": "HT29 spheroid", "test": "Spheroid formation assay, HT29", "type": "cell-based, human", "protocol": "(§1) FIGS. 5A-5B are graphs showing the anticancer effects of CL16 in HT29 (FIG. 5A) and SW620 (FIG. 5B) spheroids. HT29 spheroid or SW620 spheroid were treated with CL16 at the indicated concentrations for 10 days. The spheroids were then imaged by microscope using 10× objective and the size was determined by ImageJ.\n(§2) 5,000 cells of HT29 and SW620 cells were inoculated in serum-free DMEM/F12 medium with 20 ng/mL […] growth factor (EGF) in 96-well round-bottom low-affinity plate (Nunc). Medium was supplemented with CL16 or Rhosin when spheroid has formed an opaque core. Morphology was recorded under a light microscope with 10× objective.\n(§3) To further investigate the anticancer effects of CL16, HT29 and SW620 cells were inoculated as spheroids in low-affinity plate with 20 ng/mL EGF, and incubated with different concentrations of CL16 or Rhosin."}, "[4]": {"system": "SW620 spheroid", "test": "Spheroid formation assay, SW620", "type": "cell-based, human", "protocol": "as §1, §2, §3"}, "[5]": {"system": "orthotopic SL4 CRC", "test": "Immunocompetent orthotopic mouse CRC model (SL4 intracecal)", "type": "in vivo", "description": "FIG. 13B is a graph showing the weight of tumors from the mice treated with vehicle (n=7) or CL16 (n=8) at the end point of the investigation of CL16 treatment. FIGS. 13C-13H are graphs showing the scores of the immunohistochemistry staining of CD3 (FIG. 13C), CD4 (FIG. 13D), CD8 (FIG. 13E), Ki67 (FIG. 13F), cleaved caspase-3 (FIG. 13G) and VEGFR2 (FIG. 13H) on tumor tissues from the vehicle- or CL16-treated mice, FIG. 131 is a graph showing the changes in the body weight of mice with orthotopic SL4 CRC model treated with solvent vehicle or CL16 through i.p. injection. Antitumor effects of CL16 in an immunocompetent, orthotopic mouse CRC model, which was established by the inoculation of mouse CRC cells, SL4, intracecally were examined (FIG. 20). […] Immunohistochemistry staining of CD3, CD4, CD8, Ki67 was conducted, with cleaved caspase-3 and VEGFR2 on tumor tissues from the vehicle- or CL16-treated mice. […] To the best of our knowledge, this is the first reported study showing an increase in immunity through RhoA inhibition in CRC cells by a small molecule compound."}, "[6]": {"conditions": "20 ng/mL EGF, low-affinity plate"}},
  "data": [
    {"smiles": "O=C(CCl)N1N=C(c2cc3ccccc3o2)CC1c1ccco1", "note": "(stereo not shown) [CL16]", "values": [
      {"measurement": "kinetics of Dbs-mediated GTP binding onto RhoA", "setting": "[1]", "value": "significant decrease in the kinetics"},
      {"measurement": "phosphorylation of MLC upon serum re-stimulation", "setting": "[2]", "value": "significantly eliminated the increases in phosphorylation of MLC"},
      {"measurement": "growth of HT29 spheroids", "setting": "[3]; [6]", "value": "significant inhibitions in the growth"},
      {"measurement": "IC50", "setting": "[3]; Homo sapiens, HT-29, 240 h, 10 days, read-out: cytotoxic IC50 in HT29 spheroids", "value": 5.57, "unit": "µM"},
      {"measurement": "growth of SW620 spheroids", "setting": "[4]; [6]", "value": "significant inhibitions in the growth"},
      {"measurement": "IC50", "setting": "[4]; Homo sapiens, SW-620, 240 h, 10 days, read-out: cytotoxic IC50 in SW620 spheroids", "value": 4.1, "unit": "µM"},
      {"measurement": "body weight", "setting": "[5]; i.p. injection", "value": "no significant changes in the body weight"},
      {"measurement": "tumor weight", "setting": "[5]; i.p. injection, end point", "value": "significantly lower tumor weight"},
      {"measurement": "organ damage in kidney tissue", "setting": "[5]; treated mice", "value": "no organ damages in the kidney tissue"},
      {"measurement": "Ki67 in tumor tissues", "setting": "[5]; treated vs vehicle", "value": "decrease in Ki67"},
      {"measurement": "cleaved caspase-3 immunohistochemistry in tumor tissues", "setting": "[5]; treated vs vehicle", "value": "elevated level"},
      {"measurement": "CD3 immunohistochemistry of tumor tissues", "setting": "[5]; tumor tissues", "value": "increases"},
      {"measurement": "CD4 immunohistochemistry of tumor tissues", "setting": "[5]; tumor tissues", "value": "increases"},
      {"measurement": "CD8 immunohistochemistry of tumor tissues", "setting": "[5]; tumor tissues", "value": "increases"},
      {"measurement": "VEGFR2 level, immunohistochemistry", "setting": "[5]; tumor tissues", "value": "decrease in VEGFR2 level"},
      {"measurement": "tumor metastasis to liver", "setting": "[5]; vs control mice", "value": "prohibited the tumor metastasis"}
    ]}
  ]
}
